Reference: patent USRE39071E1, “Anhydro-and isomer-a-21978c cyclic peptides” (Eli Lilly and Company, priority 1987, dated 2006)
≈ marks a conversion by molar mass, not a printed value.

Key:
[1] = system: Haemophilus influenzae 76 (ampicillin-resistant strain); experiment: Agar-dilution MIC; type: cell-based; set-up: unit not given beside the values
Source text: (§1) Table I summarizes the minimal inhibitory concentrations (MIC's) at which the two illustrative compounds, anhydro-LY146032 and isomer-LY146032, inhibit certain organisms, as determined by standard agar-dilution assays.

[2] = system: Haemophilus influenzae CL (ampicillin-sensitive strain); experiment: Agar-dilution MIC; type: cell-based
Source text: as §1

[3] = system: Staphylacoccus aureus XL1; type: cell-based
Source text: as §1

[4] = system: Streptococcus faecalis X66; type: cell-based
Source text: as §1

[5] = system: Streptococcus faecalis 2041; type: cell-based
Source text: as §1

[6] = system: Staphylacoccus epidermidis 222; type: cell-based
Source text: as §1

[7] = system: Staphylacoccus aureus X400 (methicillin-resistant strain); type: cell-based
Source text: as §1

[8] = system: Staphylacoccus aureus V41 (penicillin-resistant strain); type: cell-based
Source text: as §1

[9] = system: Streptococcus pyogenes C203; type: cell-based
Source text: as §1

Streptococcus pyogenes = experiment: Experimental infection in mice, subcutaneous ED50; type: in vivo; settings: two doses
Description: (§2) The new derivatives of this invention have also shown in vivo antimicrobial activity against experimental bacterial infections. When two doses of test compound were administered to mice in experimental infections, the activity observed was measured as an ED50 value [effective dose in mg/kg to protect 50% of the test animals: see Warren Wick, et al., J. Bacteriol. 81, 233-235 (1961)].

Streptococcus pneumoniae = experiment: Experimental infection in mice, subcutaneous ED50; type: in vivo; settings: two doses
Description: as §2

Staphylococcus aueus = experiment: Experimental infection in mice, subcutaneous ED50; type: in vivo; settings: two doses
Description: as §2

MIC [1]	MIC [2]	MIC [3] [µg/mL]	MIC [4] [µg/mL]	MIC [5] [µg/mL]	MIC [6] [µg/mL]	MIC [7] [µg/mL]	MIC [8] [µg/mL]	MIC [9] [µg/mL]	Compound	Subcutaneous ED50 (Streptococcus pyogenes) [mg/kg]	Subcutaneous ED50 (Streptococcus pneumoniae) [mg/kg]	Subcutaneous ED50 (Staphylococcus aueus) [mg/kg]
— (>128)	— (>128)	4 (≈ 2.5 µM)	64 (≈ 39.9 µM)	16 (≈ 9.98 µM)	4 (≈ 2.5 µM)	8 (≈ 4.99 µM)	4 (≈ 2.5 µM)	1 (≈ 0.624 µM)	CCCCCCCCCC(=O)N[C@@H](Cc1c[nH]c2ccccc12)C(=O)N[C@@H](CC(N)=O)C(=O)N[C@@H](CC(=O)O)C(=O)N[C@@H]1C(=O)NCC(=O)N[C@@H](CCCN)C(=O)N[C@@H](CC(=O)O)C(=O)N[C@H](C)C(=O)N[C@H]2CC(=O)N(CC(=O)N[C@H](CO)C(=O)N[C@@H]([C@H](C)CC(=O)O)C(=O)N[C@@H](CC(=O)c3ccccc3N)C(=O)O[C@@H]1C)C2=O [Anhydro-LY146032]	1.15	3.36	9.05
—^ (>128)	—^f (>128)	8 (≈ 4.94 µM)	128 (≈ 79 µM)	32 (≈ 19.7 µM)	8 (≈ 4.94 µM)	8 (≈ 4.94 µM)	8 (≈ 4.94 µM)	2 (≈ 1.23 µM)	CCCCCCCCCC(=O)N[C@@H](Cc1c[nH]c2ccccc12)C(=O)N[C@@H](CC(N)=O)C(=O)N[C@@H](CC(=O)O)C(=O)N[C@@H]1C(=O)NCC(=O)N[C@@H](CCCN)C(=O)N[C@@H](CC(=O)O)C(=O)N[C@H](C)C(=O)N[C@H](C(=O)O)CC(=O)NCC(=O)N[C@H](CO)C(=O)N[C@@H]([C@H](C)CC(=O)O)C(=O)N[C@@H](CC(=O)c2ccccc2N)C(=O)O[C@@H]1C [Isomer-LY146032]	<1.25	3.40	10.68
